“And” between values parts separate entries of the source, which are not always exact repeats. Equal values may be shown once.
molecular target: Mitogen-activated protein kinase kinase kinase kinase 1 (Homo sapiens, UniProt Q92918); assay: MAP4K1 Biochemical Enzymatic Activity
Method: Inhibitors were dissolved in 100% DMSO at a stock concentration of 10 mM. A 100X, 10-point, 4-fold serial dilution of each inhibitor was created in 100% DMSO either manually or on a Hamilton STAR liquid handler, starting at a relevant concentration, usually 1 mM. A volume of 0.130 µL of each concentration was transferred to the relevant wells of a 384-well plate (Greiner 781 201) in duplicate using a TTPLabtech Mosquito nano-litre dispenser. Using a Multidrop Combi, the remaining constituents of the kinase reaction were added to the 130 nL of dosed compound as follows (see table below for final reaction details):Enzyme activity assays at the APPKM for ATP or 1 mM ATP: In each well of a 384-well plate, 0.1 - 15 nM of untreated enzyme was incubated in a total of 13 µL of buffer (100 mM HEPES pH 7.5, 0.015% Brij 35, 10 mM MgCl2, 1mM DTT) with 1.5 µM fluorescent peptide and 20 - 1000 µM ATP, at 25 °C, for 60 - 180 minutes in the presence or absence of a dosed concentration series of compound (1% DMSO final concentration). The kinase reactions were stopped by the addition of 70 µl of Stop buffer (100 mM HEPES pH 7.5, 0.015% Brij 35, 35 mM EDTA and 0.2% of Coating Reagent 3 (Caliper Lifesciences)). The plates were read on a Caliper EZReader 2 as described above.

Mitogen-activated protein kinase kinase kinase kinase 1, sequence (Q92918 whole entry): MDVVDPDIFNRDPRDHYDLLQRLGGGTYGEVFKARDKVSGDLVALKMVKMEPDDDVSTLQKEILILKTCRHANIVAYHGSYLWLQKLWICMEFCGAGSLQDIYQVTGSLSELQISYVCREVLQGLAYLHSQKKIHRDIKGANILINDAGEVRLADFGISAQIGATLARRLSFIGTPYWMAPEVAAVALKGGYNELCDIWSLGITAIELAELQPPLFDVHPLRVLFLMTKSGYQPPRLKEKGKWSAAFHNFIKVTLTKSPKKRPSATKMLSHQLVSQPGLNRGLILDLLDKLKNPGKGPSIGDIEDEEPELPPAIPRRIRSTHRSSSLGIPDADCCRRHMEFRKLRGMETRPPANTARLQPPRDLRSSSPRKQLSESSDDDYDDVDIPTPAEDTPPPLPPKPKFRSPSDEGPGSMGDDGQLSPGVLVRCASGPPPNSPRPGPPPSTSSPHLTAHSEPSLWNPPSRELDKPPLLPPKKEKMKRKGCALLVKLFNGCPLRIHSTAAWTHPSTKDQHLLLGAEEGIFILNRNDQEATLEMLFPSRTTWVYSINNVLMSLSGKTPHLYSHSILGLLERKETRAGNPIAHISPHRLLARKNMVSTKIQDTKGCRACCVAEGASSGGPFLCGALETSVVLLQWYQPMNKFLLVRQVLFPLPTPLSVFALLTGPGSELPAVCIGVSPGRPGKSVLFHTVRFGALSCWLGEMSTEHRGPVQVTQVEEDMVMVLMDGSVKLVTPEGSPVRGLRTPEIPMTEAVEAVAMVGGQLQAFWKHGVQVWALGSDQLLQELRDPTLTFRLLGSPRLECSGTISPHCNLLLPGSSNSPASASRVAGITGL

Structure (SMILES)	IC50
COc1ncc([C@](C)(O)C(F)F)c2cc(Nc3ccnc(C(C)(C)F)n3)ncc12 [WO2023288264, Compound 12]	47 nM
COc1ncc(C(C)(C)O)c2cc(Nc3ccnc(N4CCCC4)n3)ncc12 [WO2023288264, Compound 9]	1.63 nM
COc1ncc([C@H](C)O)c2cc(Nc3ccnc(C(C)(C)F)n3)ncc12 [WO2023288264, Compound 2]	64 nM
COC[C@@H](O)c1cnc(OC)c2cnc(Nc3ccc4c(n3)[C@@H](C)C(C)(C)OC4=O)cc12 [WO2023288264, Compound 18]	1.65 nM
COc1ncc([C@@](C)(O)C(F)F)c2cc(Nc3ccnc(C(C)(C)F)n3)ncc12 [WO2023288264, Compound 11]	15 nM
COC[C@H](O)c1cnc(OC)c2cnc(Nc3ccc4c(n3)[C@@H](C)C(C)(C)OC4=O)cc12 [WO2023288264, Compound 19]	14 nM
COc1ncc([C@@H](C)O)c2cc(Nc3ccnc(C(C)(C)F)n3)ncc12 [WO2023288264, Compound 1]	121 nM

The remaining lines, values ahead:

IC50	Structure (SMILES)
3.48 nM	CC[C@](C)(O)c1cnc(NC2CC2)c2cnc(Nc3ccc4c(n3)[C@@H](C)[C@H](C)OC4=O)cc12 [WO2023288264, Compound 20]
0.25 nM and 0.61 nM	CC[C@@H](O)c1cnc(OC)c2cnc(Nc3ccc4c(n3)[C@@H](C)C(C)(C)OC4=O)cc12 [WO2023288264, Compound 14]
1.98 nM	CC[C@@](C)(O)c1cnc(NC2CC2)c2cnc(Nc3ccc4c(n3)[C@@H](C)[C@H](C)OC4=O)cc12 [WO2023288264, Compound 21]
0.3 nM	CC[C@@](C)(O)c1cnc(OC)c2cnc(Nc3ccc4c(n3)[C@@H](C)C(C)(C)OC4=O)cc12 [WO2023288264, Compound 17]
3.06 nM	CC[C@H](O)c1cnc(OC)c2cnc(Nc3ccc4c(n3)[C@@H](C)C(C)(C)OC4=O)cc12 [WO2023288264, Compound 15]
0.39 nM	CCOc1ncc([C@@](C)(O)CC)c2cc(Nc3ccc4c(n3)[C@@H](C)C(C)(C)OC4=O)ncc12 [WO2023288264, Compound 24]
27 nM	C[C@@H]1OC(=O)c2ccc(Nc3cc4c([C@@](C)(O)C5CC5)cnc(OC5CC5)c4cn3)nc2[C@H]1C [WO2023288264, Compound 25]
3.34 nM	CCOc1ncc([C@](C)(O)CC)c2cc(Nc3ccc4c(n3)[C@@H](C)C(C)(C)OC4=O)ncc12 [WO2023288264, Compound 23]

From BindingDB's records for patent WO2023288264 (Blueprint Medicines, 2023)
